Data: patent US10464957B2, “Oxidized lipids and methods of use thereof” (Vascular Biogenics Ltd., priority 2014, dated 2019)

Assays:
[1] = test system: LPS (TLR4)-induced signaling in human monocytes (primary CD14+); test: LPS (TLR4)-induced signaling, western blot; assay type: cell-based; conditions: western blot; for formation of p-IKK, p-ERK and p-p38 induced by LPS: 20 min pretreatment, 15 min activation with 100 ng/ml LPS
Description: (§1) Venous blood samples were obtained from healthy male donors in compliance with the Institutional Review Board at the Sheba Medical Center, Ramat Gan, Israel. PBMCs were isolated on Ficoll-Paque PLUS (GE Healthcare, Uppsala, Sweden) using 50 ml Leucosep tubes (Greiner Bio-One, Frickenhausen, Germany). Cells were washed in PBS (Kibbutz Beit Haemek, Israel) and incubated at 4° C. for 15 minutes in a buffer containing PBS and 0.5% bovine serum albumin (BSA) with human CD14 microbeads (Miltenyi Biotec, Bergisch Gladbach, Germany).
(§2) Cells (10^6/ml) were pretreated for 20 min with VB-201 (1-hexadecyl-2-(4′-carboxy)butyl-glycero-3-phosphocholine or 1-hexadecyl-2-(4′-carboxybutyl)-glycerol-3-phosphocholine) or VB-701 at the doses indicated in FIG. 2, or with solvent (Sol), followed by 15 min activation with 100 ng/ml lipopolysaccharide (LPS) or were untreated (Unt). Cells were washed and resuspended in lysis buffer containing 1:100 dithiothreitol (DTT), phosphatase and protease inhibitors (Thermo Scientific). Samples were loaded onto a precast Criterion TGX gel (Bio-Rad, Hemel Hempstead, UK) and transferred onto nitrocellulose membrane. Blots were blocked with 5% milk or BSA in Tris buffered saline and Tween 20 (TBST) for 1 h, followed by incubation with primary and secondary antibodies. Membranes were developed using an ECL kit (Thermo Scientific). The following antibodies were used for immunoblotting:
(§3) Primary antibodies: p-p38 (Cat. No. 4511; 1:1000) and p-IKK (Cat. No. 2697; 1:1000) were from Cell Signaling Technology (Danvers, Mass., USA). p-ERK1/2 (Cat. No. M8159; 1:10000) was purchased from Sigma (Israel). αTubulin (Tub) served as a loading control.
(§4) Secondary antibodies: HRP donkey anti-rabbit (1:5000) and HRP goat anti-mouse (1:3000) were from Jackson ImmunoResearch (West Grove, Pa., USA). HRP donkey anti-goat (1:5000) was from Santa Cruz Biotechnology.
as §2, with “VB-201” for “VB-201 (1-hexadecyl-2-(4′-carboxy)butyl-glycero-3-phosphocholine”, “VB-703” for “1-hexadecyl-2-(4′-carboxybutyl)-glycerol-3-phosphocholine) or VB-701 at the doses indicated in FIG. 2, or with solvent (Sol),”, “LPS.” for “lipopolysaccharide (LPS) or were untreated (Unt).”
as §3, with “Heat shock protein (HSP) 90 (Cat. No. 13119; 1:500) was from Santa Cruz Biotechnology (Santa Cruz, Calif., USA).” for “αTubulin (Tub) served as a loading control.”

[2] = test system: PGN (TLR2)-induced signaling in human monocytes (THP-1 cell line); test: PGN (TLR2)-induced signaling, western blot; assay type: cell-based; conditions: 20 min pretreatment, 20 μg/ml PGN for 15 minutes
Description: The monocytic THP-1 cell line was purchased from the American Type Tissue Culture Collection (ATCC Cat. No. TIB-202). Cells (10^6/ml) were pretreated for 20 min with VB-201 or VB-701 at the doses indicated in FIG. 3, or with solvent, followed by activation with 20 μg/ml peptidoglycan (PGN) (InvivoGen, San Diego, Calif.) for 15 minutes, or were untreated (“Unt”). Cells were washed and resuspended in lysis buffer containing 1:100 dithiothreitol (DTT), phosphatase and protease inhibitors (Thermo Scientific). Samples were loaded onto a precast Criterion TGX gel (Bio-Rad, Hemel Hempstead, UK) and transferred onto nitrocellulose membrane. Blots were blocked with 5% milk or BSA in Tris buffered saline and Tween 20 (TBST) for 1 h, followed by incubation with primary and secondary antibodies. Membranes were developed using an ECL kit (Thermo Scientific). The following antibodies were used for immunoblotting:
Primary antibodies: p-p38 (Cat. No. 4511; 1:1000) and p-IKK (Cat. No. 2697; 1:1000) were from Cell Signaling Technology (Danvers, Mass., USA). p-ERK1/2 (Cat. No. M8159; 1:10000) was purchased from Sigma (Israel). αTubulin served as a loading control.
as §4

[3] = test system: MCP-1-induced signaling in human monocytes (THP-1 cell line); test: MCP-1-induced signaling, western blot; assay type: cell-based; conditions: 20 min pretreatment, 50 ng/ml MCP1, THP-1
Description: THP-1 cells (10^6/ml) were pretreated for 20 min with VB-201 or VB-701 at the doses indicated in FIG. 4, or with solvent, followed by activation with 50 ng/ml MCP1, or were untreated (“Unt”). Cells were washed and resuspended in lysis buffer containing 1:100 dithiothreitol (DTT), phosphatase and protease inhibitors (Thermo Scientific). Samples were loaded onto a precast Criterion TGX gel (Bio-Rad, Hemel Hempstead, UK) and transferred onto nitrocellulose membrane. Blots were blocked with 5% milk or BSA in Tris buffered saline and Tween 20 (TBST) for 1 h, followed by incubation with primary and secondary antibodies. Membranes were developed using an ECL kit (Thermo Scientific). The following antibodies were used for immunoblotting:
Primary antibodies: p-ERK1/2 (Cat. No. M8159; 1:10000) was purchased from Sigma (Israel). p-AKT (Cat. No. 4060; 1:1000) was purchased from Cell Signaling Technology (Danvers, Mass.). αTubulin served as a loading control and was purchased from Sigma (Israel).
as §4

[4] = test system: human monocytes (primary CD14+); test: Chemokine-induced cell migration trans-well assay; assay type: cell-based; conditions: RANTES 100 ng/ml and MCP-1 50 ng/ml, 2-4 hours, FACS count
Description: as §1
Cells (10^6/ml) were pretreated for 20 min with VB-201 or VB-701 at the doses indicated in FIG. 5, or with solvent (Sol).
To test for chemokine-induced cell migration, RANTES (100 ng/ml; Cat. No. 300-06, PeproTech, Israel) and MCP-1 (50 ng/ml; Cat. No. 300-04, PeproTech, Israel) were dissolved in RPMI-1640 medium supplemented with 0.5% fetal bovine serum (FBS) and placed at the lower chamber of QCM 24-well, […], migration assay plates (Corning-Costar, Corning, N.Y.). Cells (3×10^5) were seeded in the upper chamber and incubated for 2-4 hours. Subsequently, the number of cells which migrated to the lower compartment was determined by fluorescence-activated cell sorting (FACS).

[5] = test system: LPS (TLR4)-stimulated human monocytes (primary CD14+); test: IL-12/23p40 ELISA, LPS (TLR4)-stimulated monocytes; assay type: cell-based; conditions: 1 hour pretreatment, 24 hour 100 ng/ml LPS, ELISA of supernatant
Description: (§5) Human monocytes were obtained as described in Example 9 and FIG. 9A-9B. Human monocytes were seeded (10^6/ml) and pretreated for 1 hour with VB-201, VB-701 or VB-702, followed by 24 hour activation with 100 ng/ml LPS from Escherichia coli strain 055:B5 (Sigma, Israel) (FIG. 9A) or 300 ng/ml Pam3CSK4 (InvivoGen, San Diego, Calif., USA) (FIG. 9B) to induce cytokine production. IL-12/23p40 concentration in the supernatant was then measured by ELISA (R&D systems, Cat. No. DY1240). Cells activated with solvent (0.5% ethanol in PBS) were used as a control.

[6] = test system: Pam3CSK4 (TLR2)-stimulated human monocytes (primary CD14+); test: IL-12/23p40 ELISA, Pam3CSK4 (TLR2)-stimulated monocytes; assay type: cell-based; conditions: 1 hour pretreatment, 24 hour 300 ng/ml Pam3CSK4, ELISA of supernatant
Description: as §5

[7] = test system: RANTES-induced signaling in human monocytes (primary CD14+); test: RANTES-induced signaling, western blot; assay type: cell-based; conditions: RANTES 100 ng/ml for 15 minutes
Description: as §2
Human monocytes were obtained, treated and analyzed by western blot as described in Example 9 and FIG. 7, except that cells were induced with RANTES (100 ng/ml; Cat. No. 300-06, PeproTech, Israel) for 15 minutes. […] Accordingly, VB-702 and VB-201 inhibit RANTES-induced signaling in human monocytes (primary CD14+).

[8] = target: T1, TLR4 complex (Homo sapiens, UniProt O00206+Q9Y6Y9); test: LPS binding inhibition assay (biotin-LPS, FACS); conditions: biotin-LPS 100 ng/ml, FACS
T1 construct: endogenous in cells; probably the human primary monocytes of b454
T1 sequence (O00206 24-839): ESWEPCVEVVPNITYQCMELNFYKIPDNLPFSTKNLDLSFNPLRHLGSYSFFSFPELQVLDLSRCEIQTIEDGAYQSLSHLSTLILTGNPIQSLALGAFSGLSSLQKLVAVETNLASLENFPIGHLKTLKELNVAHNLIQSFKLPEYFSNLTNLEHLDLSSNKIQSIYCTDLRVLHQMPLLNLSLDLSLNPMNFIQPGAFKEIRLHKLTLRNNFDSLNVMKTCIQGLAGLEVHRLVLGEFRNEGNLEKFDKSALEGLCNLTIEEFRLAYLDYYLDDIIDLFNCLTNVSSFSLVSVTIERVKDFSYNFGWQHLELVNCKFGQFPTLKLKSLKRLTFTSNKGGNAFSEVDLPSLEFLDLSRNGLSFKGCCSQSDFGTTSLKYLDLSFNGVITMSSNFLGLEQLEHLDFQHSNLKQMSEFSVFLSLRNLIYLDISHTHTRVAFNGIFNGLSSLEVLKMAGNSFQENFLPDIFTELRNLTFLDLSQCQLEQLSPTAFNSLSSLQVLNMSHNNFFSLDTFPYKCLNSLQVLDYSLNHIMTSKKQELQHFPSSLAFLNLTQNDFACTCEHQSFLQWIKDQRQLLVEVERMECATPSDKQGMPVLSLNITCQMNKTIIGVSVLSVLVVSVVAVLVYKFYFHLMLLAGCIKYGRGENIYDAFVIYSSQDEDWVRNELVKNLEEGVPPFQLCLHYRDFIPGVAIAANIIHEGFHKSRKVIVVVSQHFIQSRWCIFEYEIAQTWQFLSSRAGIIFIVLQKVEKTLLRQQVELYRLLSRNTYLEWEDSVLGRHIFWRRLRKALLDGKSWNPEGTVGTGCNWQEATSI
T1 sequence (Q9Y6Y9 17-160 limits assumed): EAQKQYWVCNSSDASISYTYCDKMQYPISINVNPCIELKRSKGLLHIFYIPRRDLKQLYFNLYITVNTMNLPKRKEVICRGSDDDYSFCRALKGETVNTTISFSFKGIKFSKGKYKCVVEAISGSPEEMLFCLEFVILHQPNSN
Description: To assess interference with lipopolysaccharide (LPS) binding, VB-201 or VB-703 were incubated for 20 min with cells (10^6/ml) after which 100 ng/ml of biotin-LPS (InvivoGen) was added for an additional 15 minutes, all at 4° C. Cells were washed, resuspended in FACS buffer and analyzed on a FACS-Calibur device.

[9] = test system: human monocytes (THP-1 cell line); test: SDF1-induced cell migration trans-well assay; assay type: cell-based; conditions: 5 μg/ml, 20 min pretreatment

SMILES	formation of p-IKK, p-ERK and p-p38 induced by LPS [1]	formation of p-IKK, p-ERK and p-p38 induced by PGN [2]	formation of p-AKT and p-ERK induced by MCP1 [3]	chemokine-induced migration of human monocytes [4]	IL-12p40 levels, LPS (TLR4)-stimulated [5]	IL-12p40 levels, Pam3CSK4 (TLR2)-stimulated [6]	formation of p-ERK induced by RANTES [7]	formation of p-ERK and p-AKT induced by LPS ([1]; LPS activation)	LPS-biotin binding to human monocytes (primary CD14+) [8]	SDF1-induced migration of human monocytes (THP-1 cell line) [9]
CCCCCCCCCCCCCCCCOCC(COP(=O)([O-])OCC[n+]1ccccc1)OCCCCC(=O)O (centres unmarked) [VB-701, 1-hexadecyl-2-(4′-carboxy)butyl-glycero-sn-3-phosphoric acid pyridiniumethyl ester]	inhibit	inhibit	inhibit	inhibit	inhibit	inhibit				
CCCCCCCCCCCCCCCCCCCCOCC(COP(=O)([O-])OCC[n+]1ccccc1)OCCCCC(=O)O (centres unmarked) [VB-702, 1-eicosanyl-2-(4′-carboxy)butyl-glycero-sn-3-phosphoric acid pyridiniumethyl ester]	inhibit			inhibit	inhibit	inhibit	inhibit			
CCCCCCCCCCC(CCCCCCCC)COCC(COP(=O)([O-])OCC[n+]1ccccc1)OCCCCC(=O)OC (centres unmarked) [VB-705, 1-(2′-octyl)dodecyl-2-(4′-carboxymethyl)butyl-glycero-sn-3-phosphoric acid pyridiniumethyl ester]								inhibit	inhibits	does not inhibit
